Measured values: US20040043985A1, “6,6-Fused heteroaryl derivatives as matrix metalloproteinase inhibitors” (priority 2002, published 2004)

Target: T1, hMMP-13CD (Homo sapiens, UniProt P45452)
T1 construct: a human MMP-13 catalytic domain (“hMMP-13CD”)
Assay: Inhibition of MMP-13 catalytic domain (thiopeptolide substrate assay)
Format: biochemical
Description: The assays measure the amount by which a test compound reduces the hydrolysis of a thiopeptolide substrate catalyzed by a matrix metalloproteinase enzyme. Such assays are described in detail by Ye et al., in Biochemistry, 1992;31(45):11231-11235, which is incorporated herein by reference. One such assay is described below in Biological Method 1.
Thiopeptolide substrates show virtually no decomposition or hydrolysis at or below neutral pH in the absence of a matrix metalloproteinase enzyme. A typical thiopeptolide substrate commonly utilized for assays is Ac-Pro-Leu-Gly-thioester-Leu-Leu-Gly-OEt. A 100 μL assay mixture will contain 50 mM of N-2-hydroxyethylpiperazine-N′-2-ethanesulfonic acid buffer (“HEPES,” pH 7.0), 10 mM CaCl2, 100 μM thiopeptolide substrate, and 1 mM 5,5′-dithio-bis-(2-nitro-benzoic acid) (DTNB). The thiopeptolide substrate concentration may be varied, for example from 10 to 800 μM to obtain Km and Kcat values. The change in absorbance at 405 nm is monitored on a Thermo Max microplate reader (molecular Devices, Menlo Park, Calif.) at room temperature (22° C.). The calculation of the amount of hydrolysis of the thiopeptolide substrate is based on E412=13600 M^−1 cm^−1 for the DTNB-derived product 3-carboxy-4-nitrothiophenoxide. […]

IC50: > 50 µM
Structure (SMILES): O=C(O)c1ccc(Cn2ccc3ccc(C#CCn4ccnn4)cc3c2=O)cc1 [4-[1-oxo-7-(3-[1,2,3]triazol-1-ylprop-1-ynyl)-1H-isoquinolin-2-ylmethyl]benzoic acid]
